For test [1], the target named is T1, Serine/threonine-protein kinase DCLK2 (Homo sapiens) (UniProt Q8N568).
T1 sequence (whole entry): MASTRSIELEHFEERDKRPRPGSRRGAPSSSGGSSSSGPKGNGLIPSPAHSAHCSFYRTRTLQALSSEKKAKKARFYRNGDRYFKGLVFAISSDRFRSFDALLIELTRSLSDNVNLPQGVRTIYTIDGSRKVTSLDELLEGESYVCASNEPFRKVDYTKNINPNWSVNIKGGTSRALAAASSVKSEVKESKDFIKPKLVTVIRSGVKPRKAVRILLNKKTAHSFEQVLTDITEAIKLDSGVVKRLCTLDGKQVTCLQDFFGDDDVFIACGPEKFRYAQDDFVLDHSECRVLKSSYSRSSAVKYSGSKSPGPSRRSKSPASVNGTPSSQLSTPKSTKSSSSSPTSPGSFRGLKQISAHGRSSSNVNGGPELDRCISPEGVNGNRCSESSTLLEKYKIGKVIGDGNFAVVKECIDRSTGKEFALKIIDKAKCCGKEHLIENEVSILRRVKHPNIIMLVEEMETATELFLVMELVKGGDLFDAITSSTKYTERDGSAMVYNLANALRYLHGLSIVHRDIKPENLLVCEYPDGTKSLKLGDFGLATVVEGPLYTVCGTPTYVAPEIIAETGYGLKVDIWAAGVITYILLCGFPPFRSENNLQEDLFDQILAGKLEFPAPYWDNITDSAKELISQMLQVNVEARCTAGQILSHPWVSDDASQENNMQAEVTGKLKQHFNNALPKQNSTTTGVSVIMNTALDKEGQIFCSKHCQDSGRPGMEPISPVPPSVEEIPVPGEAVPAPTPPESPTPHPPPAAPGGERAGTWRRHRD
The test can be described thus: Inhibition of human recombinant DCAMKL2 at 15 nM in presence of ATP by radiometric assay relative to control.

For test [2], the target named is T2, Serine/threonine-protein kinase 17A (Homo sapiens) (UniProt Q9UEE5).
T2 sequence (whole entry): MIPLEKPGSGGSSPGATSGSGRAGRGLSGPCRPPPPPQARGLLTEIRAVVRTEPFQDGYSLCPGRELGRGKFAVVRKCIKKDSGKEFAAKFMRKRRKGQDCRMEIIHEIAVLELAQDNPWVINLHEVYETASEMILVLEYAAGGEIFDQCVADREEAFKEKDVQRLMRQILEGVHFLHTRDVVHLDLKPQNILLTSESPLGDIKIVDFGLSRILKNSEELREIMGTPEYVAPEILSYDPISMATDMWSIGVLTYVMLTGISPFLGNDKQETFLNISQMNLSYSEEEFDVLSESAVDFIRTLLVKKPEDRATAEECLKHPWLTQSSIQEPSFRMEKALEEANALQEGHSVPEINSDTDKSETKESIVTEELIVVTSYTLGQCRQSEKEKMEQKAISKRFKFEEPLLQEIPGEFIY
The test can be described thus: Inhibition of human recombinant DRAK1 at 15 nM in presence of ATP by radiometric assay relative to control.

In test [3] the target is Serine/threonine-protein kinase 10 (Homo sapiens) (UniProt O94804). Nature of the test: Inhibition of human recombinant LOK at 15 nM in presence of ATP by radiometric assay relative to control.
Sequence of Serine/threonine-protein kinase 10 (Homo sapiens) (O94804 whole entry, looked up): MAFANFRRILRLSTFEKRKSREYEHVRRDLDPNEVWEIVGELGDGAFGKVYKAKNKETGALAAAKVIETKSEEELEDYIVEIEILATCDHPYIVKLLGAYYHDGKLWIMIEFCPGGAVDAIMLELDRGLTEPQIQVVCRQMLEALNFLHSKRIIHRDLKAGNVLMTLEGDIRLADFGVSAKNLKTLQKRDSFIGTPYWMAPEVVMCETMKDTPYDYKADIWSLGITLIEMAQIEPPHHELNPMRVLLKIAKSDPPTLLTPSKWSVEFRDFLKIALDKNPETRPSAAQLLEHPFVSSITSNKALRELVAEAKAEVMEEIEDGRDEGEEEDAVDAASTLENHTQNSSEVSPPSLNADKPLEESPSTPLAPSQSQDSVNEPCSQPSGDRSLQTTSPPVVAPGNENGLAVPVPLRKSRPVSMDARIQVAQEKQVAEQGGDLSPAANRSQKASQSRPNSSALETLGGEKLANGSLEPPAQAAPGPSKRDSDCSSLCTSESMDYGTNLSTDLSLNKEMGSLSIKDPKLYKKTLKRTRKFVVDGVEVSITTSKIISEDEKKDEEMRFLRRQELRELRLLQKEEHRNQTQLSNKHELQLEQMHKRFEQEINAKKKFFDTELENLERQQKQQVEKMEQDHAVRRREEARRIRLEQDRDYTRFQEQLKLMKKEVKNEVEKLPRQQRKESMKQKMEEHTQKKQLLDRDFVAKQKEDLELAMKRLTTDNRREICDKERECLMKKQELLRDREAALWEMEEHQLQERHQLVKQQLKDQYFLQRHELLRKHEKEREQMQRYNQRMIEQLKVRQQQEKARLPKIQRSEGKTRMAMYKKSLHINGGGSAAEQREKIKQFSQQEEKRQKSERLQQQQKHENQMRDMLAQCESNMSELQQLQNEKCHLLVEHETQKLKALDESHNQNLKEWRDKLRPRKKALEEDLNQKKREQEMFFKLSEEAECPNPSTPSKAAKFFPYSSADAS
The target in test [4] is Cyclin-dependent kinase 4 (Homo sapiens) (UniProt P11802). The test can be described thus: Inhibition of human recombinant CDK4 at 15 nM related to control ULK1.
Sequence of Cyclin-dependent kinase 4 (Homo sapiens) (P11802 whole entry): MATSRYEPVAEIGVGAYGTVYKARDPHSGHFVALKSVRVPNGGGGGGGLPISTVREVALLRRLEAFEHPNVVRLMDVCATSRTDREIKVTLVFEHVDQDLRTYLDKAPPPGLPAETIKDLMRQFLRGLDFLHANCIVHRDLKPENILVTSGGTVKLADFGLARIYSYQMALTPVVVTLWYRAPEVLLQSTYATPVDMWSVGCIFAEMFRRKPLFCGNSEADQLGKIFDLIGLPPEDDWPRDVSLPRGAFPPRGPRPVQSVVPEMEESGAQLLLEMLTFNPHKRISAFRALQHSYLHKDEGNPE
The target in test [5] is Eukaryotic translation initiation factor 2-alpha kinase 1 (Homo sapiens) (UniProt Q9BQI3). Nature of the test: Inhibition of human recombinant HRI at 40 nM related to control ULK1.
Sequence of Eukaryotic translation initiation factor 2-alpha kinase 1 (Homo sapiens) (Q9BQI3 whole entry): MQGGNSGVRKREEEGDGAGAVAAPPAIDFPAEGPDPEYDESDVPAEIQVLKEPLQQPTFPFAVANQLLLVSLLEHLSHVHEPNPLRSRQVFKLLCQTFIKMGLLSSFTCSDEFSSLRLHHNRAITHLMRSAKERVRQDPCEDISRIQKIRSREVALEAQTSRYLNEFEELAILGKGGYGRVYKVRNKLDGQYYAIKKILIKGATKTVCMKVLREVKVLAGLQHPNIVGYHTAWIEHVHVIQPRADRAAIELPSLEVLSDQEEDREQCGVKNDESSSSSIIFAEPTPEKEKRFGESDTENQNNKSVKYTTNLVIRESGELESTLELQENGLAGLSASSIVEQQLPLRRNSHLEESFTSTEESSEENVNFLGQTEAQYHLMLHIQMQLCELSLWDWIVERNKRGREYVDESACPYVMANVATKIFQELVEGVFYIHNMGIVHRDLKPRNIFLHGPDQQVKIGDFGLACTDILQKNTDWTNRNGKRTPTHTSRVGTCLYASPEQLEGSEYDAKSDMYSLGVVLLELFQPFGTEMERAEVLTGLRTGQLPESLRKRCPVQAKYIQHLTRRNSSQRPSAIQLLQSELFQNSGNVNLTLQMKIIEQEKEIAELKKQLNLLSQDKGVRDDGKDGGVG
Test [6] deals with NT-3 growth factor receptor (Homo sapiens) (UniProt Q16288). Nature of the test: Inhibition of human recombinant TRKC at 40 nM related to control ULK1.
Sequence of NT-3 growth factor receptor (Homo sapiens) (Q16288 32-839 limits assumed): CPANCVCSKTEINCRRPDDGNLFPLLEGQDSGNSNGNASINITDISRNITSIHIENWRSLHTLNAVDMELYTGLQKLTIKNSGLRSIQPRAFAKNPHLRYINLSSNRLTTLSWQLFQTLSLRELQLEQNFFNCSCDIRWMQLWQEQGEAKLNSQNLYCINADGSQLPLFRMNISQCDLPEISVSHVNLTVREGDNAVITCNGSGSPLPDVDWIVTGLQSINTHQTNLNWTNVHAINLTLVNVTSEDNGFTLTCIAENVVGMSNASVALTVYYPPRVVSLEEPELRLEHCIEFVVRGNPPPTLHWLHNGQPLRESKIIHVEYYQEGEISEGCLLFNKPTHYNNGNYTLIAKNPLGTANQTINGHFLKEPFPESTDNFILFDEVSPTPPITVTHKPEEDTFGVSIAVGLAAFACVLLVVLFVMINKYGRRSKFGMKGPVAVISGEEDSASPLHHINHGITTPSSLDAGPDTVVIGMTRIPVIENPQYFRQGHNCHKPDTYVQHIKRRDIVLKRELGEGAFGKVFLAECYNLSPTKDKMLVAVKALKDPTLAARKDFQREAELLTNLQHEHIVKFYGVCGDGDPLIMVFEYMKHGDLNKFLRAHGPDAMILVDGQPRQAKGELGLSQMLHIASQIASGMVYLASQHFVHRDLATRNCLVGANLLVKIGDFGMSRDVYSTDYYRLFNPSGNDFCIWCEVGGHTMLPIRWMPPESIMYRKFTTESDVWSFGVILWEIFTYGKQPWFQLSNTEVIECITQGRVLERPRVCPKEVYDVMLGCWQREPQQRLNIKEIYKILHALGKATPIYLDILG
Test [7] has as its target T3, Homeodomain-interacting protein kinase 4 (Homo sapiens) (UniProt Q8NE63).
T3 sequence (whole entry): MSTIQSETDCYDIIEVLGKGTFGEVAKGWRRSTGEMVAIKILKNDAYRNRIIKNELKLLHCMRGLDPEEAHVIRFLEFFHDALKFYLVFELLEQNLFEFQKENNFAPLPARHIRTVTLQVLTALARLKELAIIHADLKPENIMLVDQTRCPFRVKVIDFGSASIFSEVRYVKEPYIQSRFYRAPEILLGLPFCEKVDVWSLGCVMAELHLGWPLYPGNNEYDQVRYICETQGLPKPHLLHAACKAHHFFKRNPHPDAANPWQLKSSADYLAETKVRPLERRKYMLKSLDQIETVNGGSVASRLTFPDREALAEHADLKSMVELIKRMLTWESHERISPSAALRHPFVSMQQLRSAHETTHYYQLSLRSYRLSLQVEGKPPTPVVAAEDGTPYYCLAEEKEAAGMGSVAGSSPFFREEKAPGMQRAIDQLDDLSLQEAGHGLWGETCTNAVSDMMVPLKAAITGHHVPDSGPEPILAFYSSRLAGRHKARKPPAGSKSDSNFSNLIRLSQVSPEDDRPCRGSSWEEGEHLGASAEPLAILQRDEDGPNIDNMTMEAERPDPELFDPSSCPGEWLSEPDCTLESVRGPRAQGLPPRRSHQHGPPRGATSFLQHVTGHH
The test can be described thus: Inhibition of human recombinant HIPK4 at 40 nM in presence of ATP by radiometric assay relative to control.

For test [8], the target named is T4, Mitogen-activated protein kinase kinase kinase 3 (Homo sapiens) (UniProt Q99759).
T4 sequence (whole entry): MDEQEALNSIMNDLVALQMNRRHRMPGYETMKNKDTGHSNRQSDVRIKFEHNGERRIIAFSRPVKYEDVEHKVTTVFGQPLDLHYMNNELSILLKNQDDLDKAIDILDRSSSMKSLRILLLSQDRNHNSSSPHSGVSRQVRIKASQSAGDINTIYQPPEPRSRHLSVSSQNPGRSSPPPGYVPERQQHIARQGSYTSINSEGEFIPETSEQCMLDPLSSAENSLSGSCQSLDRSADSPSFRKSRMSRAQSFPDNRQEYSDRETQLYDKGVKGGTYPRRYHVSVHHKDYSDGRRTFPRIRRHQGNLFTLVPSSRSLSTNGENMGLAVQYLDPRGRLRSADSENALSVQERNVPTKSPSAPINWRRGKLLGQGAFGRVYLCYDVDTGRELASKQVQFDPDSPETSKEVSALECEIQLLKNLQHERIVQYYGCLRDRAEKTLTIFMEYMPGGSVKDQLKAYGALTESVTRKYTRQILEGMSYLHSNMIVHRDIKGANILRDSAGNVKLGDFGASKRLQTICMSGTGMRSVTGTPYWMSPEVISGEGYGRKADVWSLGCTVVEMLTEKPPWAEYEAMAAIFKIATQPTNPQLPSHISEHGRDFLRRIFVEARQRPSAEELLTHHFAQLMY
Nature of the test: Inhibition of human recombinant MAP3K3 at 500 nM in presence of ATP by radiometric assay relative to control.

The structures appear in SMILES notation.

The inhibition is the share of the control response that was lost under treatment. For the compound `CC(C)[C@H](NC(=O)c1cc(-c2cnn3cc(-c4ccc(OCCN5CCCCC5)cc4)cnc23)cs1)C(F)(F)F`, the results for the inhibition in test [1], in test [2] and in test [3] were 12%, 71% and 0%, respectively. Moreover, in test [4], the fold change (FC) came to 0.13.
On to `O=C(N[C@@H](C1CC1)C(F)(F)F)c1cc(-c2cnn3cc(-c4ccc(F)cc4)cnc23)cs1`, for which the fold change (FC) in test [5] was determined as 0.01; in test [6], 0. Further, in test [7], the inhibition stood at 0%.
For `CNC(=O)c1ccccc1Oc1nc(Nc2cc(OC)c(OC)c(OC)c2)ncc1Br`, in test [8], the inhibition was found to be 0%.

Source of the values: ChEMBL document CHEMBL5653631, “A Potent and Selective ULK1 Inhibitor Suppresses Autophagy and Sensitizes Cancer Cells to Nutrient Stress” (iScience, 2018).
